{"source": "patent US20160221992A1", "about": "“DENDRITIC COMPOUNDS INCLUDING A CHELATING, FLUOROCHROME OR RECOGNITION AGENT, COMPOSITIONS INCLUDING SAME AND USES THEREOF” (UNIVERSITE DE STRASBOURG, priority 2013, published 2016)", "key": {"[1]": {"system": "murine melanoma (B16FO line)", "test": "Quantitative study of tumoral fixation and biodistribution of the radiolabeled compound (ex-vivo gamma counting after IV injection)", "format": "in vivo, C57B16 mice", "conditions": "for Ratio (g)/Al TU/kidneys / Ratio (g)/Al Tu/Liver / Ratio (g)/Al Tu/Lungs / Ratio (g)/Al Tu/blood / Total Elimination (% del ‘Al’) / Tumor (g/Al %) / Total Elimination: Indium-111-radiolabeled, IV", "description": "C57B16 mice bearing xenografts of murine melanoma (B16FO line) obtained by subcutaneous injection of 300 000 cells suspended in 100 μl of RPMI culture medium are injected subcutaneously in the back. The experiment is performed when the tumors are palpable. i.e. about 10 days […]. All the experiments (tumoral graft, injection and imaging) are carried out under isoflurane/oxygen (2.5%/2.5%) gas anesthesia.\nInjection of 50 to 100 microliters of the radiolabeled solution, with a maximum activity of 20 MBQ, by direct intravenous injection (caudal vein). The activity of the empty syringe after injection+compress is also measured for calculating the actual activity injected (actual Ac injected=Ac normalized full syringe—normalized activity (empty syringe and compress). Normalization consists in calculating the theoretical activity at one and the same time chosen as reference (for example the time of injection). The measurements are performed on a regularly calibrated activity meter for medical use (Medisystem©).\nScintigraphic imaging is carried out using a dedicated small animal micro-5 imager SPECT-CT (BIOSCAN™). A planar scintigraphic image is obtained immediately after injection to verify absence of intracaudal stasis. If there is stasis, the mouse will be sacrificed at late times (24 or 48 h). Static scintigraphic images may be recorded at 2 h, 4 h, 24 h and 48 h (Imager micro-SPECT-CT BIOSCAN©).\nThis is done ex-vivo by gamma counting of the various samples, using a gamma well counter for medical use, regularly calibrated for the isotopes used (Tc-99m and In-111). The animals are euthanized according to the protocols allowed by the animal ethics committee at 2 h, 4 h, 24 h or 48 h. The main organs are removed (brain, spleen, kidneys, lungs, heart, alimentary canal, liver) as well as a fragment of skin, muscle, bone and a blood sample and the whole tumor. Each sample is weighed and its gamma activity is counted in a sample-changing well counter for dedicated medical use, calibrated for the radioelements used. The animal's carcass is also weighed after removing the tail; these samples are incinerated and their gamma activity is also measured. The gamma activity of the samples containing all the collected urine and the feces is also measured. The activity of each sample is normalized (relative to the time of injection), and the ratio of the activity of each sample is calculated relative to the total activity injected (=the sum of all of the activities measured except that of the tail), expressed in % per gram of tissue, for calculating the ratio of the activity present in the tumor relative to the main organs (liver, kidneys, lungs and blood). The percentage of the activity eliminated is calculated.\nThe mean values of all of the data for all of the mice whose data are exploitable are calculated, as well as after eliminating the animals with urinary excretion that is too quick (>50% at 2 h or 75% at 4 h, as well as the mice with tumors >2 g, as the existence of necrosis may distort the calculation of the ratio of fixation in the tumor).\nThe biodistribution data of the various dendrimer compounds coupled to the IFC01102 ligand (also called amine R) and to a chelating agent are compared with those of the ligand alone coupled to the DOTA chelating agent (compound AP045) and radiolabeled with the same radioelement. 8.5 Results with Compound APAG9-1 (Radiolabeled with Tc99m) The radiochemical purity is above 95%, according to the chromatographic profile obtained as described above (example 5). 12 animals were injected. The average activity injected is 3.5±2.4 MBq. 2 animals were euthanized at 2 h, 4 at 24 h and 48 h post-injection. Examples of planar image immediately post-injection and 2 hours post-injection are illustrated in FIG. 3."}, "[2]": {"system": "murine melanoma (B16FO line)", "test": "Quantitative study of tumoral fixation and biodistribution of the radiolabeled compound (ex-vivo gamma counting after IV injection)", "format": "in vivo, C57B16 mice"}, "[3]": {"test": "Lymphatic drainage after intradermal injection in the hind paws (sentinel lymph node characterization, scintigraphy/SPECT)", "format": "in vivo, mouse", "description": "Scintigraphic imaging is performed using a dedicated small animal micro-5 imager SPECT-CT (BIOSCAN™). A planar scintigraphic image is obtained immediately after injection to verify absence of intracaudal stasis. Static scintigraphic images may be recorded at 2 h, 4 h, 24 h and 48 h (Imager micro-SPECT-CT BIOSCAN©).\nIntradermal injection of 1 to 20 microliters of a suspension of radiolabeled dendrimers with a hypodermic syringe in the pad of the hindpaw of a nude mouse. A whole-body planar scintigraphic image of the mouse is obtained 5 minutes after injection to verify absence of passage of the compound through the blood. Acquisition of tomographic images (SPECT) every 30 minutes to monitor the lymphatic drainage of the compound and determine the time of disappearance of the signal in the popliteal lymph node. 9.3.a Injection of Compound X1 Labeled with Tc99m (Generation 2 Molecule)"}, "[4]": {"conditions": "cited from earlier work"}, "[5]": {"conditions": "48 post-IV, animals with low urinary excretion or under hydric restriction"}, "[6]": {"conditions": "2 h post-iv, animals with low urinary excretion or under hydric restriction"}, "[7]": {"conditions": "4 h post-IV, animals with low urinary excretion or under hydric restriction"}, "[8]": {"conditions": "24 h post-IV, animals with low urinary excretion or under hydric restriction"}, "[9]": {"conditions": "24 hours after intradermal injection at the two hind paws, Tc99m, 2.8 MBq"}}}
{"compound": "CCN(CC)CCNC(=O)c1cnc2cc(NC(=O)NCCOCCOCCNC(=O)CN3CCN(CC(=O)O)CCN(CC(=O)O)CCN(CC(=O)O)CC3)ccc2n1", "note": "[AP045, reference compound]", "values": [{"measurement": "Ratio (g)/Al TU/kidneys", "setting": "[1]; 48 post-IV", "result": "4.06E−01"}, {"measurement": "Ratio (g)/Al Tu/Liver", "setting": "[1]; 48 post-IV", "result": "7.14E−02"}, {"measurement": "Ratio (g)/Al Tu/Lungs", "setting": "[1]; 48 post-IV", "result": "2.97E+00"}, {"measurement": "Ratio (g)/Al Tu/blood", "setting": "[1]; 48 post-IV", "result": "9.95E+00"}, {"measurement": "Total Elimination (% del ‘Al’)", "setting": "[1]; 48 post-IV", "result": "7.23E+01", "unit": "% del ‘Al’"}, {"measurement": "Tumor (g/Al %)", "setting": "[1]; 48 post-IV", "result": "1.19E+00", "unit": "g/Al %"}, {"measurement": "Ratio (g)/Al TU/kidneys", "setting": "[1]; 4 h post-IV", "result": "2.45E−01"}, {"measurement": "Ratio (g)/Al Tu/Liver", "setting": "[1]; 4 h post-IV", "result": "4.97E−02"}, {"measurement": "Ratio (g)/Al Tu/Lungs", "setting": "[1]; 4 h post-IV", "result": "1.92E+00"}, {"measurement": "Ratio (g)/Al Tu/blood", "setting": "[1]; 4 h post-IV", "result": "1.12E+01"}, {"measurement": "Tumor (g/Al %)", "setting": "[1]; 4 h post-IV", "result": "1.44E+00", "unit": "g/Al %"}, {"measurement": "tumor ratio relative to the liver", "setting": "[1]; 24 hours after IV injection, Indium-111", "result": "greater than 1"}, {"measurement": "Ratio (g)/Al TU/kidneys", "setting": "[1]; 24 h post-IV", "result": "2.93E−01"}, {"measurement": "Ratio (g)/Al Tu/Liver", "setting": "[1]; 24 h post-IV", "result": "1.31E+00"}, {"measurement": "Ratio (g)/Al Tu/Lungs", "setting": "[1]; 24 h post-IV", "result": "3.55E+00"}, {"measurement": "Total Elimination (% del ‘Al’)", "setting": "[1]; 24 h post-IV", "result": 90.33, "unit": "% del ‘Al’"}, {"measurement": "Tumor (g/Al %)", "setting": "[1]; 24 h post-IV", "result": "1.77E+00", "unit": "g/Al %"}, {"measurement": "time at which the maximum tumoral uptake is observed", "setting": "[1]; after IV injection of the radiolabeled compound", "result": 24, "unit": "h"}, {"measurement": "Total Elimination (% del ‘Al’)", "setting": "[2]; 4 h post-IV, Indium-111-radiolabeled, IV", "result": "6.38E+01", "unit": "% del ‘Al’"}, {"measurement": "tumor/kidney ratio (in words)", "setting": "[2]; Indium-111, activity in the kidneys still high", "result": "unfavorable"}]}
{"compound": "CCN(CC)CCNC(=O)c1cnc2cc(NC(=O)NCCOCCOCCNC(=O)CCOCCOCCOCCOCCNC(=O)CCN(CCNC(=O)CCN(CCC(=O)NCCN(CCC(=O)NCCOCCOCCOCCOCCC(=O)NCCOCCOCCNC(=O)Nc3ccc4nc(C(=O)NCCN(CC)CC)cnc4c3)CCC(=O)NCCOCCOCCOCCOCCC(=O)NCCOCCOCCNC(=O)Nc3ccc4nc(C(=O)NCCN(CC)CC)cnc4c3)Cc3cn(CCOCCOCCOCCOCCNC(=O)CN4CCN(CC(=O)O)CCN(CC(=O)O)CCN(CC(=O)O)CC4)nn3)CCC(=O)NCCOCCOCCOCCOCCC(=O)NCCOCCOCCNC(=O)Nc3ccc4nc(C(=O)NCCN(CC)CC)cnc4c3)ccc2n1", "note": "[AP070]", "values": [{"measurement": "Ratio (g)/Al TU/kidneys", "setting": "[1]; [5]", "result": "5.23E−01"}, {"measurement": "Ratio (g)/Al Tu/Liver", "setting": "[1]; [5]", "result": "1.59E+00"}, {"measurement": "Ratio (g)/Al Tu/Lungs", "setting": "[1]; [5]", "result": "6.28E+00"}, {"measurement": "Ratio (g)/Al Tu/blood", "setting": "[1]; [5]", "result": "1.74E+01"}, {"measurement": "Total Elimination", "setting": "[1]; [5]", "result": "8.4E+01"}, {"measurement": "Tumor (g/Al %)", "setting": "[1]; [5]", "result": "3.60E+00", "unit": "g/Al %"}, {"measurement": "Ratio (g)/Al TU/kidneys", "setting": "[1]; [6]", "result": "3.6E−01"}, {"measurement": "Ratio (g)/Al Tu/Liver", "setting": "[1]; [6]", "result": "1.4E+00"}, {"measurement": "Ratio (g)/Al Tu/Lungs", "setting": "[1]; [6]", "result": "2.1E+00"}, {"measurement": "Ratio (g)/Al Tu/blood", "setting": "[1]; [6]", "result": "1.9E+00"}, {"measurement": "Total Elimination", "setting": "[1]; [6]", "result": "4.8E+01"}, {"measurement": "Tumor (g/Al %)", "setting": "[1]; [6]", "result": "5.9E+00", "unit": "g/Al %"}, {"measurement": "tumoral uptake (in words)", "setting": "[1]; 4 hours after IV injection, Indium-111", "result": "high"}, {"measurement": "Ratio (g)/Al TU/kidneys", "setting": "[1]; [7]", "result": "3.96E−01"}, {"measurement": "Ratio (g)/Al Tu/Liver", "setting": "[1]; [7]", "result": "1.28E+00"}, {"measurement": "Ratio (g)/Al Tu/Lungs", "setting": "[1]; [7]", "result": "2.93E+00"}, {"measurement": "Ratio (g)/Al Tu/blood", "setting": "[1]; [7]", "result": "3.07E+00"}, {"measurement": "Total Elimination", "setting": "[1]; [7]", "result": "2.6E+01"}, {"measurement": "Tumor (g/Al %)", "setting": "[1]; [7]", "result": "1.27E+01", "unit": "g/Al %"}, {"measurement": "Ratio (g)/Al TU/kidneys", "setting": "[1]; [8]", "result": "2.58E−01"}, {"measurement": "Ratio (g)/Al Tu/Liver", "setting": "[1]; [8]", "result": "4.06E−01"}, {"measurement": "Ratio (g)/Al Tu/Lungs", "setting": "[1]; [8]", "result": "3.52E+00"}, {"measurement": "Ratio (g)/Al Tu/blood", "setting": "[1]; [8]", "result": "2.00E+01"}, {"measurement": "Total Elimination", "setting": "[1]; [8]", "result": "6.8E+01"}, {"measurement": "Tumor (g/Al %)", "setting": "[1]; [8]", "result": "3.69E+00", "unit": "g/Al %"}, {"measurement": "tumoral uptake compared with the ligand alone (AP045)", "setting": "[1]; APAG22-1: at two hours post-IV", "result": "far higher"}, {"measurement": "tumor/liver ratio relative to the compound AP071", "setting": "[1]; Indium-111", "result": "less favorable"}, {"measurement": "tumoral uptake relative to the compound AP071", "setting": "[2]; notably at 4 hours, Indium-111", "result": "lower"}]}
{"compound": "COCCOCCOCCOCCOc1cc(C(=O)NCCCCNC(=O)CN2CCN(CC(=O)O)CCN(CC(=O)O)CCN(CC(=O)O)CC2)cc(OCCOCCOCCOCCOC)c1OCCOCCOCCOCCOC", "note": "[APAG4]", "values": [{"measurement": "drainage in the entire lymphatic network as far as the lumbar-aortic stage", "setting": "[3]; SPECT 3 h after intradermal injection, indium-111, 10 MBq", "result": "clearly visible"}]}
{"compound": "O=C([O-])CN(CCN(CC(=O)[O-])CC(=O)O)CCN(CC(=O)[O-])CC(=O)O.[Gd+3]", "note": "[Gd(III)-DTPA]", "values": [{"measurement": "relaxation rate r1", "setting": "[4]; 0.6 T, 20° C.", "result": 5400, "unit": "M⁻¹ s⁻¹"}]}
{"compound": "COCCOCCOCCOCCOc1cc(COc2cc(OCc3cc(OCCOCCOCCOCCOC)c(OCCOCCOCCOCCOC)c(OCCOCCOCCOCCOC)c3)cc(C(=O)NCCCNC(=O)C(CCCNC(=O)c3cccc(O)c3O)(CCCNC(=O)c3cccc(O)c3O)CCCNC(=O)c3cccc(O)c3O)c2)cc(OCCOCCOCCOCCOC)c1OCCOCCOCCOCCOC", "note": "[X1]", "values": [{"measurement": "hepatic activity", "setting": "[3]; [9]", "result": "very low"}, {"measurement": "level of urinary elimination", "setting": "[3]; [9]", "result": "very high"}]}
{"compound": "Gadomer-17", "values": [{"measurement": "r1", "setting": "[4]; 1.5 T and 37° C.", "result": 15.2, "unit": "mM⁻¹ s⁻¹"}]}
